According to publication PMC6776549, “Gingival solitary chemosensory cells are immune sentinels for periodontitis” (Nature Communications, 2019):

Assays:
Tas2r105 [1] = biological target: T1, Tas2r105 (Mus musculus, UniProt Q9JKT4); experiment: calcium mobilization in transfected HEK293; assay type: cell-based; settings: agonist, Gα16gust44 co-expressed
T1 construct: coding region amplified from WT mouse taste bud cDNA; N-terminal tag of first 45 residues of rat somatostatin receptor 3; pcDNA3.1/Zeo(+); transient in HEK293 (PEAKrapid) with chimeric reporter G protein Galpha16gust44
T1 sequence (Q9JKT4 1-300): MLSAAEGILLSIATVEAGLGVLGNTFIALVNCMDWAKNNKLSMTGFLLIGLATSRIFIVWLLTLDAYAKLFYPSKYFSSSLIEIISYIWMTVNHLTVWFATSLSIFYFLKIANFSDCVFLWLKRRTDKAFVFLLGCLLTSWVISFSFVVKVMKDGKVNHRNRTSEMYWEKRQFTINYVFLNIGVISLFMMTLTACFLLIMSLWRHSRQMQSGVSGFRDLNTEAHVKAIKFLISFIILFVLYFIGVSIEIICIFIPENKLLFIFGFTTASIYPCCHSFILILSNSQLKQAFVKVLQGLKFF

Tas2r105 [2] = biological target: T1, Tas2r105; experiment: calcium mobilization in transfected HEK293, fluorescence dose-response; assay type: cell-based

## CC[N+](CC)(CC(=O)Nc1c(C)cccc1C)Cc1ccccc1 [denatonium benzoate]
Tas2r105 [1]
  calcium mobilization in transfected HEK293: Tas2r105 was also activated by the bitter compounds denatonium benzoate (Den)

## CCCCCCCCCC(=O)CC(=O)N[C@H]1CCOC1=O [LasI]
Tas2r105 [2]
  EC50: 8.9 µM

## CCCCCCCC(=O)N[C@H]1CCOC1=O [C8-HSL]
Tas2r105 [1]; synthetic compound
  calcium mobilization in transfected HEK293: two synthetic HSLs: 3-oxo-C12-HSL and C8-HSL
